Assay results from article PMC4521925, “17β-Hydroxysteroid Dehydrogenase Type 2 Inhibition: Discovery of Selective and Metabolically Stable Compounds Inhibiting Both the Human Enzyme and Its Murine Ortholog” (PLoS ONE, 2015).
Like-named read-outs stand apart in the source and are kept apart here.

Key:
m17β-HSD2 = target: T1, m17β-HSD2 (Mus musculus, UniProt P51658); experiment: Inhibition of m17β-HSD2 in cell-free assay; assay type: biochemical; details: for % inh. at 1 μM m17β-HSD2: mouse liver microsomal fraction, substrate E2 [500 nM], cofactor NAD+ [1500 μM], Table 1
T1 construct: The microsomal fraction (m17β-HSD2) was obtained from mouse liver as described for h17β-HSD2; tissue Pharmacelsus GmbH (mouse livers); host or cells: mouse liver, microsomal fraction
T1 sequence (P51658 1-381): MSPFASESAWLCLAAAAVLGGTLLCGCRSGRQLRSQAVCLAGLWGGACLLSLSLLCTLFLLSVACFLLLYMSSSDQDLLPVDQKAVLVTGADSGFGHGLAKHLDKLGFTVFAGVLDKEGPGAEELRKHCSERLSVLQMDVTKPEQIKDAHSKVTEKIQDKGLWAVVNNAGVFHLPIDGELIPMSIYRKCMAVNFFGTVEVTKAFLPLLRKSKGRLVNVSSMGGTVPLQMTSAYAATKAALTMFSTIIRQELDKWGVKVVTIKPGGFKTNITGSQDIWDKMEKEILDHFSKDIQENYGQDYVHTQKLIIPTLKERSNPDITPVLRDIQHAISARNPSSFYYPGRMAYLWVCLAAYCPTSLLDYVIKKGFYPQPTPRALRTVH
Method: (§1) h17β-HSD2, h17β-HSD1, m17β-HSD2 and m17β-HSD1 cell-free assays were performed similarly, by incubating enzyme, tritiated substrate, cofactor and inhibitor, according to described procedures.
The microsomal fraction (m17β-HSD2) was obtained from mouse liver as described for h17β-HSD2. Inhibitory activities were evaluated by a method identical to the one described for the human enzyme.
(§2) Inhibitory activities were evaluated following an established method with minor modifications. Briefly, the enzyme preparation was incubated with NAD^+ [1500 μM] in the presence of potential inhibitors at 37C in a phosphate buffer (50 mM) supplemented with 20% of glycerol and EDTA 1mM. Inhibitor stock solutions were prepared in DMSO. Final concentration of DMSO was adjusted to 1% in all samples. […] After 20 min, the incubation was stopped with HgCl2 and the mixture was extracted with ether. After evaporation, the steroids were dissolved in acetonitrile/water (45:55). […] Detection and quantification of the steroids were performed using a radioflow detector (Berthold Technologies, Bad Wildbad). […] Each value was calculated from at least two independent experiments.

h17β-HSD2 [1] = target: T2, h17β-HSD2 (Homo sapiens, UniProt P37059); parameters: from tissue; host or cells: human placenta, microsomal fraction; details: human placental microsomal fraction, substrate E2 [500 nM], cofactor NAD+ [1500 μM]; previously described inhibitors; cited from earlier work
T2 sequence (P37059 1-387): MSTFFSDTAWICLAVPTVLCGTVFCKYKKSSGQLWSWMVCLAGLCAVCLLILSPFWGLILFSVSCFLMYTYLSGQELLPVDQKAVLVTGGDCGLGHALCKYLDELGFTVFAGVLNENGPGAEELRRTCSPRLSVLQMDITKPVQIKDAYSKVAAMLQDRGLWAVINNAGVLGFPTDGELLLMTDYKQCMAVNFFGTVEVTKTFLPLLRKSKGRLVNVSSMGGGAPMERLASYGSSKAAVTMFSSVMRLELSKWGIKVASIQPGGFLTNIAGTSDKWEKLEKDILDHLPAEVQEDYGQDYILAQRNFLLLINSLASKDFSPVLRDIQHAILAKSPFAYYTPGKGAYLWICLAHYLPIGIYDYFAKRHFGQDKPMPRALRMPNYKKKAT

h17β-HSD1 = target: T3, h17β-HSD1 (Homo sapiens, UniProt P14061); experiment: Inhibition of h17β-HSD1 in cell-free assay; assay type: biochemical; details: human placental cytosolic fraction, substrate E1 [500 nM], cofactor NADH [500 μM]
T3 construct: h17β-HSD1 was obtained after precipitation with ammonium sulfate from the cytosolic fraction; from tissue; host or cells: human placenta, cytosolic fraction
T3 sequence (P14061 1-328): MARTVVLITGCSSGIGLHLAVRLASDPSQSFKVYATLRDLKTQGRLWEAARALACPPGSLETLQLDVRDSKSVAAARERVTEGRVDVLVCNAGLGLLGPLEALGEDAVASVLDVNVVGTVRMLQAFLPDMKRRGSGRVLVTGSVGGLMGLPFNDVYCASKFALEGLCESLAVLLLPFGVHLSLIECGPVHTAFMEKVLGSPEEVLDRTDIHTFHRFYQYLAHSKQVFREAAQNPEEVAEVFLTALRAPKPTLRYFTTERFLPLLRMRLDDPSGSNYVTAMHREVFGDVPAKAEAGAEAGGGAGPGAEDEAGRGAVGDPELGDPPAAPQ
Method: as §1
(§3) Cytosolic (h17β-HSD1) and microsomal (h17β-HSD2) fractions were obtained from human placenta according to previously described procedures. Fresh tissue was homogenized and the enzymes were separated from the mitochondria, cell membrane. Nucleus and other rests by fractional centrifugation at 1000 g, 10.000 g and 150.000 g. The pellet fraction containing the microsomal h17β-HSD2 was used for the determination of h17β-HSD2 inhibition, while h17β-HSD1 was obtained after precipitation with ammonium sulfate from the cytosolic fraction for use of testing of h17β-HSD1 inhibition. Aliquots containing h17β-HSD1 or h17β-HSD2 were stored frozen.
The 17β-HSD1 inhibition assay was performed similarly to the h17β-HSD2 test. The human cytosolic enzyme was incubated with NADH [500 μM] while the mouse recombinant enzyme was reacted with NADPH [500 μM].Test compound and a mixture of unlabelled- and [^3H]-E1 (final concentration: 500 nM, 0.15 μCi) were added and mixed for 10 min at 37°C. Further treatment of the samples and HPLC separation was carried out as mentioned above for h17β-HSD2.

ERα = target: T4, ERα (Homo sapiens, UniProt P03372); experiment: Estrogen receptor affinity in a cell-free assay (ERα); assay type: binding; details: 1000-fold excess relative to E2; recombinant human ERα
T4 sequence (P03372 1-595): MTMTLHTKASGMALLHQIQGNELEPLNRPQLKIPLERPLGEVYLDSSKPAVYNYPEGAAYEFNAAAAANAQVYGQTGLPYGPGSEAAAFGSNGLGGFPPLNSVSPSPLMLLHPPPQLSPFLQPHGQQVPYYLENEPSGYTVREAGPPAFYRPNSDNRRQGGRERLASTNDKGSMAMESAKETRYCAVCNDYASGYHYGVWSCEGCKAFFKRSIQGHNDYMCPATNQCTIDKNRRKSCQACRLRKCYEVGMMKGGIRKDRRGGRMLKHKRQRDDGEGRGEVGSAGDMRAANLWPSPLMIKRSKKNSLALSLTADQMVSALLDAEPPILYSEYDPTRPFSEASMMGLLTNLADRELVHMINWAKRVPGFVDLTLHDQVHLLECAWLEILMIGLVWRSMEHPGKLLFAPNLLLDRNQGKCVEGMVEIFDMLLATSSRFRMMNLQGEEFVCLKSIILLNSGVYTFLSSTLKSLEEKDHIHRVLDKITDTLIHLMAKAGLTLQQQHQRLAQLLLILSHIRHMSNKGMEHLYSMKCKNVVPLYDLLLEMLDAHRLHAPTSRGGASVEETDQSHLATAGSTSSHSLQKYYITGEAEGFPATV
Method: (§4) The binding affinity of selected compounds to ERα and ERβ was determined according to the recommendations of the US Environmental Protection Agency (EPA) by their Endocrine Disruptor Screening Program (EDSP)[24] using recombinant human proteins.
(§5) The potential inhibitors were dissolved in DMSO (5% final concentration). […] After incubation, ligand-receptor complexes were selectively bound to hydroxyapatite (83.5 g/LinTE-buffer). The bound complex was washed three times and resuspended in ethanol. For radiodetection, scintillator cocktail (Quickszint 212, Zinsser Analytic, Frankfurt) was added and samples were measured in a liquid scintillation counter (1450 LSC & Luminescence Counter, Perkin Elmer).
(§6) After the assay was established and validated, a modification was made to increase throughput.

ERβ = ERβ (Homo sapiens, UniProt Q92731); experiment: Estrogen receptor affinity in a cell-free assay (ERβ); assay type: binding; details: 1000-fold excess relative to E2; recombinant human ERβ
ERβ, sequence (Q92731 whole entry): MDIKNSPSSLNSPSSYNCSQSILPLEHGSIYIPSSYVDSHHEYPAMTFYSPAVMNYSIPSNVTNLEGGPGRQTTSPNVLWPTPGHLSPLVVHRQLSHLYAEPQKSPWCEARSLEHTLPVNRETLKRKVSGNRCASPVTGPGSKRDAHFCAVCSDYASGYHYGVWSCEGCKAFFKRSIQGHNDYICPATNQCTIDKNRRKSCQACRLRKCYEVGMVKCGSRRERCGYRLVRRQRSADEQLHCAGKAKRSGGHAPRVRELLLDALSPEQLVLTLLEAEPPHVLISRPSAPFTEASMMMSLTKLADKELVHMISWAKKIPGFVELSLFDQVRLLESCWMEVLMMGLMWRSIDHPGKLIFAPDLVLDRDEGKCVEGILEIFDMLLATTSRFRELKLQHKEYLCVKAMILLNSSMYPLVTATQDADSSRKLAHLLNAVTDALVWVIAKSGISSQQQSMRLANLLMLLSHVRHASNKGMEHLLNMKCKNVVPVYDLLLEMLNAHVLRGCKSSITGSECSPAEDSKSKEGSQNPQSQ
Method: as §4, §5, §6

h17β-HSD2 [2] = target: T2, h17β-HSD2; experiment: Inhibition of h17β-HSD2 in cell-free assay; assay type: biochemical; parameters: from tissue; host or cells: human placenta, microsomal fraction; details: for s.f. (selectivity factor) = IC50(17β-HSD1)/IC50(17β-HSD2): human enzymes, cell-free
Method: as §1, §3, §2

[3] = Metabolic stability in a cell-free assay (liver S9 fraction); assay type: in vitro ADME; details: pooled liver S9 fraction; human liver S9 fraction 1 mg/ml, NADPH regenerating system, UDPGA, PAPS, 37°C; inhibitor 1 μM; read-out: Inhibitor t1/2
Method: Compounds 7a, 8a, 16a, 19a, 22a, 27a and 27 were tested according to established method[33–35]For evaluation of phase I and II metabolic stability 1 μM compound was incubated with 1 mg/ml pooled mammalian liver S9 fraction (BD Gentest), 2 mM NADPH regenerating system, 1 mM UDPGA and 0.1 mM PAPS at 37°C for 0, 5, 15 and 60 minutes at a final volume of 100 μL. The incubation was stopped by precipitation of S9 enzymes with 2 volumes of cold acetonitrile containing internal standard. Concentration of the remaining test compound at the different time points was analyzed by LC-MS/MS and used to determine half-life (t1/2).

SMILES | % inh. at 1 μM m17β-HSD2 (m17β-HSD2) [%] | IC50 (h17β-HSD2 [1]) [nM] | IC50 (h17β-HSD1) [nM] | displacement of E2 from ERα (ERα) [%] | displacement of E2 from ERβ (ERβ) [%] | IC50 (h17β-HSD2 [2]) [nM] | s.f. (selectivity factor) = IC50(17β-HSD1)/IC50(17β-HSD2) (h17β-HSD2 [2]) | further results
COc1cccc(N(C)C(=O)c2ccc(-c3cccc(N(C)C)c3)s2)c1 [Compound 1g] | 40 | 170 |  |  |  |  |  | 
COc1cccc(N(C)C(=O)c2ccc(-c3cccc(OC)c3F)s2)c1 [Compound 1j] | 26 | 62 |  |  |  |  |  | 
COc1cccc(-c2cccc(C(=O)N(C)c3cccc(OC)c3)c2)c1 [Compound 4a] | 25 | 520 |  |  |  |  |  | 
CN(Cc1cccc(O)c1)C(=O)c1cccc(-c2cccc(O)c2)c1 [Compound 4e] | 29 | 640 |  |  |  |  |  | 
COc1cccc(-c2ccc(C(=O)N(C)c3cccc(OC)c3)cc2)c1 [Compound 7a, 3'-Methoxy-N-(3-methoxyphenyl)-N-methyl-[1,1'-biphenyl]-4-carboxamide] |  |  | 6400 | ≤ 20 | ≤ 20 | 330 | 20 | IC50 (m17β-HSD2): 290 nM; melting point: 131 to 134 °C
COc1cccc(CN(C)C(=O)c2ccc(-c3cccc(C)c3F)cc2)c1 [Compound 25a, 2'-Fluoro-N-(3-methoxybenzyl)-N,3'-dimethyl-[1,1'-biphenyl]-4-carboxamide] |  |  | 87000 | ≤ 20 | ≤ 20 | 310 | 283 | inhibition at 1 µM (m17β-HSD2; read-out: % inh. at 1 μM m17β-HSD2): 43%; half-life at 1 μM [3]: 1.72 h
